Test results: patent US9522907B2, “Anticancer agent and process for the preparation thereof” (COUNCIL OF SCIENTIFIC & INDUSTRIAL RESEARCH, priority 2014, dated 2016)

Columns and labels:
SK-MEL-28 = experiment: NCI in vitro cytotoxicity, SK-MEL-28; details: Homo sapiens
Source text: (§3) For these compounds results are expressed as growth inhibition (GI50) values as per NCI protocol.

KM12 = experiment: NCI in vitro cytotoxicity, KM12; details: Homo sapiens
Source text: as §3

RPMI-8226 = experiment: NCI in vitro cytotoxicity, RPMI-8226; details: Homo sapiens
Source text: as §3

UACC-257 = experiment: NCI in vitro cytotoxicity, UACC-257; details: Homo sapiens
Source text: as §3

RXF 393 = experiment: NCI in vitro cytotoxicity, RXF 393; details: Homo sapiens
Source text: as §3

HT29 = experiment: NCI in vitro cytotoxicity, HT29; details: Homo sapiens, HT-29
Source text: as §3

HCC-2998 = experiment: NCI in vitro cytotoxicity, HCC-2998; details: Homo sapiens
Source text: as §3

COLO 205 = experiment: NCI in vitro cytotoxicity, COLO 205; details: Homo sapiens
Source text: as §3

LOX IMVI = experiment: NCI in vitro cytotoxicity, LOX IMVI; details: Homo sapiens
Source text: as §3

NCI-H322M = experiment: NCI in vitro cytotoxicity, NCI-H322M; details: Homo sapiens
Source text: as §3

Breast cancer cell lines = experiment: cells; format: cell-based; details: for CC50: read-out: Log10 LC50 mean graph midpoint (MG_MID) (converted)
Source text: (§1) The mean graph midpoint values of Log10 GI50 as well as Log10 LC50 for the compounds 2i, 5i and Hoechst 33258 (NSC-322921) is listed in Table 2.
(§2) Each cancer type represents the average of six to eight different cancer cell lines.

[1] = system: Melanoma cancer cell lines; experiment: cells; format: cell-based; details: for LC50: read-out: Log10 LC50 mean graph midpoint (MG_MID) (converted)
Source text: as §1, §2

[2] = system: Leukemia cancer cell lines; experiment: cells; format: cell-based; details: for LC50 (50% lethal concentration, NCI mean graph midpoint): read-out: Log10 LC50 mean graph midpoint (MG_MID) (converted)
Source text: as §1, §2

CNS cancer cell lines = experiment: cells; format: cell-based; details: for CC50: read-out: Log10 LC50 mean graph midpoint (MG_MID) (converted)
Source text: as §1, §2

Renal cancer cell lines = experiment: cells; format: cell-based; details: for CC50: read-out: Log10 LC50 mean graph midpoint (MG_MID) (converted)
Source text: as §1, §2

[3] = system: Prostate cancer cell lines; experiment: cells; format: cell-based; details: for CC50: read-out: Log10 LC50 mean graph midpoint (MG_MID) (converted)
Source text: as §1, §2

[4] = system: Ovarian cancer cell lines; experiment: cells; format: cell-based; details: for CC50: read-out: Log10 LC50 mean graph midpoint (MG_MID) (converted)
Source text: as §1, §2

[5] = system: Non-small-cell lung cancer cell lines; experiment: cells; format: cell-based; details: for LC50 (lethal concentration 50%): read-out: Log10 LC50 mean graph midpoint (MG_MID) (converted)
Source text: as §1, §2

Colon cancer cell lines = experiment: cells; format: cell-based; details: for LC50: read-out: Log10 LC50 mean graph midpoint (MG_MID) (converted)
Source text: as §1, §2

SK-OV-3 = experiment: NCI in vitro cytotoxicity, SK-OV-3; details: Homo sapiens
Source text: as §3

OVCAR-8 = experiment: NCI in vitro cytotoxicity, OVCAR-8; details: Homo sapiens
Source text: as §3

786-0 = experiment: NCI in vitro cytotoxicity, 786-0; details: Homo sapiens
Source text: as §3

OVCAR-5 = experiment: NCI in vitro cytotoxicity, OVCAR-5; details: Homo sapiens
Source text: as §3

MCF-7 = experiment: NCI in vitro cytotoxicity, MCF-7; details: Homo sapiens, MCF7
Source text: as §3

K-562 = experiment: NCI in vitro cytotoxicity, K-562; details: Homo sapiens, K562
Source text: as §3

[6] = system: BT-549 (breast cancer cell line); experiment: NCI in vitro cytotoxicity, BT-549; details: Homo sapiens
Source text: as §3

Structure (SMILES) | GI50 (SK-MEL-28) | GI50 (KM12) | GI50 (RPMI-8226) | GI50 (UACC-257) | GI50 (RXF 393) | GI50 (HT29) | GI50 (HCC-2998) | GI50 (LOX IMVI) | CC50 (Breast cancer cell lines; Homo sapiens) | LC50 ([1]; Homo sapiens) | LC50 (50% lethal concentration, NCI mean graph midpoint) ([2]; Homo sapiens) | CC50 (CNS cancer cell lines; Homo sapiens) | CC50 (Renal cancer cell lines; Homo sapiens) | CC50 ([3]; Homo sapiens) | CC50 ([4]; Homo sapiens) | LC50 (lethal concentration 50%) ([5]; Homo sapiens) | LC50 (Colon cancer cell lines; Homo sapiens) | GI50 (SK-OV-3) | GI50 (OVCAR-8) | GI50 (OVCAR-5) | other results
COc1cc(-c2nc(-c3ccc(-c4nc5cc(F)ccc5[nH]4)cc3)no2)cc(OC)c1OC [2i, 3-(4-(5-Fluoro-1H-benzo[d]imidazol-2-yl)phenyl)-5-(3,4,5-trimethoxyphenyl)-1,2,4-oxadiazole] | 3.78 µM | 3.08 µM | 1.94 µM | 3.7 µM | 1.9 µM | 3.69 µM | 6.13 µM | 1.65 µM | 93.3 µM | 35.5 µM | ≥ 100 µM | 91.2 µM | 79.4 µM | ≥ 100 µM | 87.1 µM | 75.9 µM | 75.9 µM | 4.12 µM | 2.36 µM | 5.59 µM | GI50 (COLO 205): 4.77 µM; GI50 (NCI-H322M): 1.3 µM; Log10 GI50 mean graph midpoint (MG_MID) (Breast cancer cell lines; Breast, average of cell lines of the cancer type): −5.55; Log10 GI50 mean graph midpoint (MG_MID) ([1]; Melanoma, average of cell lines of the cancer type): −5.55; Log10 GI50 mean graph midpoint (MG_MID) ([2]; Leukemia, average of cell lines of the cancer type): −5.64; Log10 GI50 mean graph midpoint (MG_MID) (CNS cancer cell lines; CNS, average of cell lines of the cancer type): −5.39; Log10 GI50 mean graph midpoint (MG_MID) (Renal cancer cell lines; Renal, average of cell lines of the cancer type): −5.45; Log10 GI50 mean graph midpoint (MG_MID) ([3]; Prostate, average of cell lines of the cancer type): −5.51; Log10 GI50 mean graph midpoint (MG_MID) ([4]; Ovarian, average of cell lines of the cancer type): −5.49; Log10 GI50 mean graph midpoint (MG_MID) ([5]; Non-small-cell lung, average of cell lines of the cancer type): −5.47; Log10 GI50 mean graph midpoint (MG_MID) (Colon cancer cell lines; Colon, average of cell lines of the cancer type): −5.44; GI50 (786-0): 3.61 µM; GI50 (MCF-7): 2.88 µM
COc1ccc2[nH]c(-c3ccc(-c4noc(-c5cc(OC)c(OC)c(OC)c5)n4)cc3)nc2c1 [5i, 3-(4-(5-Methoxy-1H-benzo[d]imidazol-2-yl)phenyl)-5-(3,4,5-trimethoxyphenyl)-1,2,4-oxadiazole] | 9.59 µM | 7.52 µM | 6.02 µM | 17.1 µM | 5.24 µM | 2.7 µM | 35.5 µM | 13.3 µM | 79.4 µM | 83.2 µM | 100 µM | 44.7 µM | 74.1 µM | 91.2 µM | 67.6 µM | 79.4 µM | 85.1 µM | 25.3 µM | 4.93 µM | 16.7 µM | GI50 (K-562): 1.2 µM; GI50 (Breast cancer cell lines; Homo sapiens, Breast, average of cell lines of the cancer type, read-out: Log10 GI50 mean graph midpoint (MG_MID) (converted)): 3.39 µM; GI50 ([1]; Homo sapiens, Melanoma, average of cell lines of the cancer type, read-out: Log10 GI50 mean graph midpoint (MG_MID) (converted)): 7.59 µM; GI50 ([2]; Homo sapiens, Leukemia, average of cell lines of the cancer type, read-out: Log10 GI50 mean graph midpoint (MG_MID) (converted)): 3.31 µM; GI50 (CNS cancer cell lines; Homo sapiens, CNS, average of cell lines of the cancer type, read-out: Log10 GI50 mean graph midpoint (MG_MID) (converted)): 6.31 µM; GI50 (Renal cancer cell lines; Homo sapiens, Renal, average of cell lines of the cancer type, read-out: Log10 GI50 mean graph midpoint (MG_MID) (converted)): 14.5 µM; GI50 ([3]; Homo sapiens, Prostate, average of cell lines of the cancer type, read-out: Log10 GI50 mean graph midpoint (MG_MID) (converted)): 14.1 µM; GI50 ([4]; Homo sapiens, Ovarian, average of cell lines of the cancer type, read-out: Log10 GI50 mean graph midpoint (MG_MID) (converted)): 7.59 µM; GI50 ([5]; Homo sapiens, Non-small-cell lung, average of cell lines of the cancer type, read-out: Log10 GI50 mean graph midpoint (MG_MID) (converted)): 8.71 µM; GI50 (Colon cancer cell lines; Homo sapiens, Colon, average of cell lines of the cancer type, read-out: Log10 GI50 mean graph midpoint (MG_MID) (converted)): 4.79 µM; GI50 [6]: 0.52 µM; GI50 (MCF-7): 1.08 µM
